From US20140275122A1, “Voriconazole Formulations” (Fresenius Kabi USA, LLC, priority 2013, published 2014)

What was measured:
[1] = Storage stability of lyophilized voriconazole compositions, total impurities by HPLC after reconstitution; assay type: physicochemical
Method: Lyophilized compositions were formed by dissolving the excipient (SBECD or HPCD) in water and adjusting the pH of the resulting excipient solution. Voriconazole (200 mg) was added to the excipient solution, and the pH of the resulting lyophilization solution was adjusted as necessary. The lyophilization solutions were then filtered and lyophilized to form solid compositions. The lyophilization procedure was adjusted as need for each type of composition; however, the general procedure included reducing the temperature of the lyophilization solutions to −45° C., performing a primary drying at a temperature of from −35 to −15° C. and under a vacuum of from 50-200 milliTorr (mTorr), and performing a secondary drying at a temperature of 40° C. To ensure the lowest initial impurities possible, the solutions for lyophilization were prepared at low temperature, using a nitrogen blanket and purging.
Each composition was sealed in a 5 mL vial with a 13 mm rubber stopper (STELMI 6720GC; American Stelmi Corporation, Princeton, N.J.) and stored at 25° C., 40° C. or 55° C. (all temperatures ±2° C.). After storage for 4 or 8 weeks at 25° C., for 4, 8 or 12 weeks at 40° C., or for 2 or 4 weeks at 55° C., a portion of the vials were reconstituted with 19 mL of water for injection. The reconstituted liquids were analyzed by HPLC to determine the concentrations of voriconazole and of any impurities. For comparison, a portion of each composition was reconstituted at the beginning of the storage time (time=0 weeks) with 19 mL of water for injection, and analyzed by HPLC for voriconazole and impurity concentrations.
Solutions comprising HPCD and voriconazole were prepared as described in Example 1, except that the pH of the solution prior to lyophilization was adjusted to 5.18, 5.5, 6.0, 6.5, or 7.0. The lyophilized compositions were formed and then analyzed for the stability of voriconazole over time at 40° C. or 55° C., as described above with regard to Table 1. Table 2 lists the results of stability analyses of lyophilized compositions containing voriconazole in combination with HPCD, where the compositions had different pH values prior to lyophilization.
(§1) The lyophilized compositions were formed and then analyzed for voriconazole stability over time at 40° C. and 55° C., as described above with regard to Table 1. Table 3 lists the results of stability analyses of lyophilized compositions containing voriconazole in combination with HPCD, where the compositions further included one of the amino acids arginine, aspartic acid or glycine.
as §1, with “3.” for “1.”, “4” for “3”, “lysine, histidine, asparagine, glutamine” for “arginine, aspartic acid”, “threonine.” for “glycine.”
The effects of pH prior to lyophilization were analyzed for the formulations that included lactose. The lyophilized compositions were formed and then analyzed for voriconazole stability over time at 40° C. and 55° C., as described above with regard to Table 3. […]
The pH prior to lyophilization was adjusted to 6.2 with HCl/NaOH. The lyophilized compositions were formed and then analyzed for voriconazole stability over time at 40° C. and 55° C., as described above with regard to Table 3. […]

[2] = aqueous liquid having a pH of 3; cited from earlier work

In the case of `C[C@@H](c1ncncc1F)[C@](O)(Cn1cncn1)c1ccc(F)cc1F` [voriconazole, (2R,3S)-2-(2,4-difluorophenyl)-3-(5-fluoro-4-pyrimidinyl)-1-(1H-1,2,4-triazol-1-yl)-2-butanol], the “Total impurities (%)” value ([1]; lyophilized solid stored at 40 °C, 4 weeks) is reported as 0.70%, the “Total impurities (%)” value ([1]; lyophilized solid stored at 40 °C, 8 weeks) is reported as 0.34% and the “Total impurities (%)” value ([1]; lyophilized solid stored at 40 °C, 12 weeks) is reported as 0.43%. For the same compound, the “Total impurities (%)” value ([1]; lyophilized solid stored at 55 °C, 2 weeks) was 0.58%, the “Total impurities (%)” value ([1]; lyophilized solid, time 0 weeks (reconstituted at beginning of storage)) was 0.18% and the solubility of voriconazole [2] was 2 mg/mL.
